Measured values reported in US20250136650A1, “COMPOSITIONS AND METHODS FOR DNA BINDING AND TRANSCRIPTIONAL REGULATION” (THE UNIVERSITY OF CHICAGO, priority 2021, published 2025).
Entries after “also recorded” stand apart in the source; their conditions may differ.

Legend:
[1] = system: natural TF operator motifs (UPRE/HRE); assay: Quantitative multiplexed EMSA (qEMSA) on pooled TF operator motifs; type: binding; conditions: pool of >30 motifs
Protocol: Quantitative, Multiplexed EMSA (qEMSA): A set of 33 unique DNA motif targets were designed and flanked by 12 unique barcoded forward primers and a single universal reverse primer (Extended Data Table 1). The DNA targets were pooled in sets of 12 comprised of the canonical UPRE target sequence 1 and 11 barcoded competitor motifs to a final concentration of 4 nM (2×) each target in 1×binding buffer. STRs were prepared at 2× concentration in 1×binding buffer (10 nM for STR1, STR4, STR21 and STR22). 10 μL of pooled DNA targets and 10 μL of STR were mixed and incubated for 15 min at RT followed by 15 min at 4° C. 5 µL of each sample was loaded into a 10% acrylamide 0.5×TBE native gel equilibrated to 4° C. Electrophoresis was carried out at 150V for 120 min at 4° C. The gel was then stained using EtBr ([…] in 0.5×TBE) for 30 min at RT and destained in DI water for 10 min. The gel was visualized using a Spectroline model TE-132S transilluminator and the shifted DNA band representing the bound targets was excised. […] The purified DNA was analyzed by quantitative PCR usinga SYBR green master mix (Applied Biosystems) on a Lightcycler 480 II (Roche). Relative enrichment to the E-box target sequence was determined as the change between cycle threshold values (Ct) of E-box target and TF motif (100*2− ? Ct), and independent replicates were plotted against each other.

MDA-MB-231 tumors = assay: MDA-MB-231 mammary fat pad xenograft in nude mice; type: in vivo, mouse
From the text: Moreover, hypoxia-induced gene signatures have also been associated with poor disease outcomes in TNBC patients^41,42. Given these associations, the inventors sought to determine how STR22 antagonism of HIF1α-dependent signaling would affect TNBC cell phenotypes in cell culture and in vivo. […] Therefore, the inventors sought to determine whether STR22 treatment would affect the growth of TNBC cells in the in vivo context of tumor xenografts. To do so, the inventors generated MDA-MB-231 xenografts in the mammary fat pads of nude mice; after tumors reached 100 mm^3-a size previously shown capable of creating hypoxic microenvironments^43-matched cohorts (n=10) were treated once every three days with intratumoral injections of STR22 or saline vehicle alone (FIG. 104C). […] A separate study using fewer MDA-MB-231 cells to generate xenografts replicated these findings ([…]). […] Mouse Xenograft Studies. […] Tumor growth was monitored twice a week using digital caliper measurements in two dimensions (A, B) to estimate volume. Tumor volume was calculated as: (A*B^2)/2, where B is the […] diameter and A is the diameter perpendicular to B. Tumor growth (V/V0) or final volume/mass was shown as mean+/-s.e.m. with P values determined by multiple unpaired t-tests. […]

[2] = Body weight and activity after single injection; type: in vivo, mouse; conditions: healthy mice, single injection IV or subcutaneous, 25, 10, 5 mg/kg
Protocol: STR22 at various provided concentrations were added to 10× diluted plasma then added to 4× volume of methanol, centrifuged and used for LCMS detection (FIG. 112). Injection of different concentrations of STR22 was performed through either intravenous or subcutaneous. Blood was collected through submandibular bleed at different time points and analyze via established extraction and LCMS methods. […] Body weight change after a single injection of STR22 through intravenous (IV) or subcutaneous (Sub) was also measured.

AP-1 site = assay: EMSA, direct binding to AP-1 DNA probe
From the text: The DNA binding dimer STR22 (shown in FIG. 21 and FIG. 27) was synthesized. STR22 was subjected to EMSA to measure binding to either the UPR element (UPRE) or AP-1 binding site (AP-1).
bZIP transcriptional repressors FJSTR7 (shown in FIGS. 42 and 45), FJSTR71 (shown in FIGS. 52 and 53), and FJSTR72 (shown in FIGS. 52 and 54), were generated and tested.
Electrophoretic Mobility Shift Assays (EMSAs): For direct DNA binding experiments, STRs were serially diluted at 10× concentration in water and then 1 μL of STR solution was added to 9 μL of 5 nM IRD700-labeled DNA probe bearing either a UPRE or AP-1 motif in a final 1×binding buffer (20 mM HEPES pH 8.0, 150 mM NaCl, 5% glycerol, 1 mM EDTA, 2 mM MgCl2, 0.5 mg/mL BSA, 1 mM DTT, 0.05% NP-40). Samples were incubated for 1 hr at RT. 5 μL of each reaction was loaded on an 8% acrylamide, 0.5×TBE gel equilibrated to 4° C. Samples were resolved for 60 min at 110 V and 4° C. with 0.5×TBE+1 mM MgCl2 running buffer. Gels were pre-run at 110 V for 15 min prior to sample loading. For competition experiments, 30 or 60 nM STRs and 5 nM labeled UPRE probe were incubated with 0, 7.8, 13, 21.6, 36, 60 or 100 nM unlabeled competitor oligo for 1 hr at RT. […] ImageJ was used to quantify band intensity and the fraction of bound DNA was calculated by dividing the band intensity of bound DNA by the band intensity of free DNA from the vehicle treated lane. […]

## XBP1-derived stapled dimer: RRK^KNR^AAQTARDRKKA#LSELEQQVVDLE linked to RRK^KNR^AAQTARDRKKARLSEL#QQVVDLE; FIG. 27 [STR22]
[1]
  qEMSA binding specificity among TF operator motifs: most enriched; also recorded: specifically bound oligos containing a core UPRE/HRE sequence motif
MDA-MB-231 tumors; 24 hours after last injection
  HIF1α-dependent target gene expression in tumors (qPCR): inhibition of hypoxia-induced gene expression
MDA-MB-231 tumors; nude mice, intratumoral injections, about three weeks
  tumor volume: significantly inhibited
[2]
  activity and body weight: No changes in activity or body weight observed
AP-1 site
  binding to control AP1 motif oligonucleotide: undetectable binding
